Positions of bridges follow the written chain, without caps; N, C: chain ends. Non-standard residues stand in square brackets, D forms with d. Residues, ends and D or L forms follow the SMILES beside them.
Assays:
[1] = target: Somatostatin receptor type 1 (Homo sapiens, UniProt P30872); experiment: Inhibition of [125I](Leu8,DTrp22,Tyr25)-SRIF28 binding to human sst1
[2] = target: Somatostatin receptor type 2 (Homo sapiens, UniProt P30874); experiment: Inhibition of [125I](Leu8,DTrp22,Tyr25)-SRIF28 binding to human sst2
Chain of Somatostatin receptor type 2 (P30874 whole entry): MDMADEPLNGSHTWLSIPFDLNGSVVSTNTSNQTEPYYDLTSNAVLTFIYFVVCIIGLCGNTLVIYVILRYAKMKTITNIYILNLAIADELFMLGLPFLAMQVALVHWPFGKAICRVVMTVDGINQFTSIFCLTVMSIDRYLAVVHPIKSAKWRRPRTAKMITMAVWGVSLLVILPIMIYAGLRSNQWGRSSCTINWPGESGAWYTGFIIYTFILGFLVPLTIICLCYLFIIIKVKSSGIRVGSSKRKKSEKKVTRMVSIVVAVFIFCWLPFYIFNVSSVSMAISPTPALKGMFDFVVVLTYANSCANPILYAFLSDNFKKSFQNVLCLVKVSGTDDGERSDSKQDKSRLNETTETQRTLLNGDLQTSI

[3] = target: Somatostatin receptor type 3 (Homo sapiens, UniProt P32745); experiment: Inhibition of [125I](Leu8,DTrp22,Tyr25)-SRIF28 binding to human sst3
Chain of Somatostatin receptor type 3 (P32745 whole entry): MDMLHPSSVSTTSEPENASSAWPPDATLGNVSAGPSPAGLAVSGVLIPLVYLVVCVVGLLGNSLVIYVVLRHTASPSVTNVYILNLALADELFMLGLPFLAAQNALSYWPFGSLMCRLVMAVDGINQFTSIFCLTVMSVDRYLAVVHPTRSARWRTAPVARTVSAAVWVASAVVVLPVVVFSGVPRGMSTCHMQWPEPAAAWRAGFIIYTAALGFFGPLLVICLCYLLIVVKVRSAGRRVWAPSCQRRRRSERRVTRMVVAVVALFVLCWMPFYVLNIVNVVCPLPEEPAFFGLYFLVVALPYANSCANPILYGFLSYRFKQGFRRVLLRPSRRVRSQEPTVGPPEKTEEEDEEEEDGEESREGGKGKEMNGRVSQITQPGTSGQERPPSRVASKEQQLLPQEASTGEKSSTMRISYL

[4] = target: Somatostatin receptor type 5 (Homo sapiens, UniProt P35346); experiment: Inhibition of [125I](Leu8,DTrp22,Tyr25)-SRIF28 binding to human sst5
Chain of Somatostatin receptor type 5 (P35346 whole entry): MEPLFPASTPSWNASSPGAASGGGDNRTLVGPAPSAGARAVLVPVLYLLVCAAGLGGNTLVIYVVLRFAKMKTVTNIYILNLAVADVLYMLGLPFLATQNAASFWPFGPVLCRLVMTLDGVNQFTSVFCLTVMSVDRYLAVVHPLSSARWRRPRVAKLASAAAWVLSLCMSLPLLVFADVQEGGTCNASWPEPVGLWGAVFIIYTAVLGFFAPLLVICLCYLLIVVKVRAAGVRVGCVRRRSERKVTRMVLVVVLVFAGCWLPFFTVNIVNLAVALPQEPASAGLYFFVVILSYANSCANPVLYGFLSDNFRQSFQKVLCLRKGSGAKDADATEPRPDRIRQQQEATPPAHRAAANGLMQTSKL

[5] = target: Somatostatin receptor type 4 (Homo sapiens, UniProt P31391); experiment: Inhibition of [125I](Leu8,DTrp22,Tyr25)-SRIF28 binding to human sst4
Chain of Somatostatin receptor type 4 (P31391 whole entry): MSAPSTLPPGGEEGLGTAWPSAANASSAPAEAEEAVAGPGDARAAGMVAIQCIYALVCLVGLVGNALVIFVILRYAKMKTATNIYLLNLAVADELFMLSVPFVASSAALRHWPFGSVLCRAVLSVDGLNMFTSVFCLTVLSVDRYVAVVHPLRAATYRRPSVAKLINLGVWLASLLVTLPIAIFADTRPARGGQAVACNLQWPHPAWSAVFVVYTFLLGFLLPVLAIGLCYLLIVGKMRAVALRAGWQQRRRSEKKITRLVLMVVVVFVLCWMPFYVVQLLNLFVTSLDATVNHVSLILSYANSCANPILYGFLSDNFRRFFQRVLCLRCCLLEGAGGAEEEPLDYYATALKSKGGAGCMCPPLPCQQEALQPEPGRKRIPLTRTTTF

Chain of Somatostatin receptor type 1 (P30872 whole entry): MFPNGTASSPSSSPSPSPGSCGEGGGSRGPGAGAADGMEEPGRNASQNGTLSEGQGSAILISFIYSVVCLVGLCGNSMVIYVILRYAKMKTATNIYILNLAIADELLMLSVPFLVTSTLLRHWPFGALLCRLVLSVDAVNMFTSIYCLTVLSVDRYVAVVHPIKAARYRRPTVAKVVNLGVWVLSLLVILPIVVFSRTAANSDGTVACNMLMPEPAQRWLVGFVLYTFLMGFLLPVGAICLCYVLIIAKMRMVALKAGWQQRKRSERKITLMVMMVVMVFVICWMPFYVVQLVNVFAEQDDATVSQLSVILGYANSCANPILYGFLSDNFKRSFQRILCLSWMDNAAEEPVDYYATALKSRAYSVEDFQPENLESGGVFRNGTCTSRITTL

Row | IC50 [1] [nM] | IC50 [2] [nM] | IC50 [3] [nM] | IC50 [4] [nM] | IC50 [5] [nM] | SMILES
1 | > 1000 | 6.2 | 210 | 77 |  | C[C@@H](O)[C@H](NC(=O)[C@@H]1CSSC[C@H](NC(=O)[C@@H](Cc2ccccc2)NC(N)=O)C(=O)N[C@@H](Cc2ccc(NC(N)=O)cc2)C(=O)N[C@H](Cc2c[nH]c3ccccc23)C(=O)N[C@@H](CCCCN)C(=O)N[C@@H]([C@@H](C)O)C(=O)N1)C(N)=O
2 | > 1000 | 7.5 | 942 | 109 |  | C[C@@H](O)[C@H](NC(=O)[C@@H]1CSSC[C@H](NC(=O)[C@H](Cc2ccccc2)NC(N)=O)C(=O)N[C@@H](Cc2ccc(NC(N)=O)cc2)C(=O)N[C@H](Cc2c[nH]c3ccccc23)C(=O)N[C@@H](CCCCN)C(=O)N[C@@H]([C@@H](C)O)C(=O)N1)C(N)=O
3 | > 1000 | 378 | > 1000 | > 1000 | > 1000 | C[C@@H](O)[C@@H]1NC(=O)[C@H](CCCCN)NC(=O)[C@@H](Cc2c[nH]c3ccccc23)NC(=O)[C@H](Cc2ccccc2)NC(=O)[C@@H](N)CSSC[C@@H](C(=O)O)NC1=O (H-CF[dW]KTC-OH; disulfide 1-6)

The next lines start with the compound.

Row | SMILES | IC50 [1] [nM] | IC50 [2] [nM] | IC50 [3] [nM] | IC50 [4] [nM] | IC50 [5] [nM]
4 | C[C@@H](O)[C@H](NC(=O)[C@@H]1CSSC[C@H](NC(=O)[C@H](N)Cc2ccccc2)C(=O)N[C@@H](Cc2ccccc2)C(=O)N[C@H](Cc2c[nH]c3ccccc23)C(=O)N[C@@H](CCCCN)C(=O)N[C@@H]([C@@H](C)O)C(=O)N1)C(N)=O | > 1000 | 2.2 | 38 |  | > 10000
5 | C[C@@H]1NC(=O)[C@@H](NC(=O)[C@H](N)Cc2ccccc2)CSSC[C@@H](C(=O)N[C@H](C(N)=O)[C@@H](C)O)NC(=O)[C@H]([C@@H](C)O)NC(=O)[C@H](CCCCN)NC(=O)[C@@H](Cc2c[nH]c3ccccc23)NC1=O | > 1000 | 3.6 | 543 | 158 | > 1000
6 | CONC(=O)Nc1ccc(C[C@@H]2NC(=O)[C@@H](NC(=O)[C@@H](Cc3ccccc3)NC(N)=O)CSSC[C@@H](C(=O)N[C@H](C(N)=O)[C@@H](C)O)NC(=O)[C@H]([C@@H](C)O)NC(=O)[C@H](CCCCN)NC(=O)[C@@H](Cc3c[nH]c4ccccc34)NC2=O)cc1 | > 1000 | 3.1 | 958 | 539 | > 1000
